{
  "source": "paper PMC6267684",
  "about": "“Pharmacokinetic evaluation of the PNC disassembler metarrestin in wild-type and Pdx1-Cre;LSL-Kras^G12D/+;Tp53^R172H/+ (KPC) mice, a genetically engineered model of pancreatic cancer” (Cancer Chemotherapy and Pharmacology, 2018)",
  "key": {"[1]": {"system": "FOXO6 mRNA", "assay": "FOXO6 mRNA expression in KPC tumors (RNA-seq, qRT-PCR)", "format": "in vivo, KPC mice", "conditions": "vs intratumor exposure", "experimental": "Pancreas cancer tissues samples or adjacent, uninvolved normal pancreas from vehicle or metarrestin-treated KPC animals collected at 0, 3, and 9 h after last dose of 25 mg/kg metarrestin were homogenized in PureLink Lysis Buffer (PureLink RNA Mini Kit, ThermoFisher Scientific Waltham, MA) at 4 °C using a TissueLyser II bead mill (Qiagen, Valencia, CA, manufactured by Retsch, Newtown, PA). Total RNA was isolated using the Life Technologies PureLink® RNA Mini Kit, quantified on a NanoDrop 1000 spectrophotometer (ThermoFisher Scientific, Waltham, MA). […]\nTotal RNA libraries were prepared using the Illumina TruSeq® Stranded Total RNA LT (with Ribo-Zero™Human/Mouse/Rat) kit according the manufacturer’s instructions. […] Sequencing output ranged from 89 to 132 million reads per sample. Adapter trimming and base filtering was done using Trimmomatic software version 0.3, and the trimmed reads were aligned to mouse reference genome (GRCm38/mm10) and Ensembl annotation (version 70) using TopHat2 version 2.0.8.\nA total of 450 ng of total RNA was used for single-strand complementary DNA synthesis using a SuperScript III First-Strand kit (Invitrogen, Carlsbad, CA). […] Reaction products were read in a Bio-Rad CFX96 Touch real-time PCR detection system (Bio-Rad Laboratories, Hercules, CA). […]"}, "[2]": {"system": "PNC in murine KPC tumors", "assay": "PNC prevalence in KPC tumors (immunofluorescence with α-PTB1 antibodies)", "format": "in vivo, KPC mice", "conditions": "after 14-day treatment with 25 mg/kg by oral gavage; untreated 38.2%", "experimental": "Blood samples were collected in K2EDTA tubes and plasma was harvested after centrifugation at 3000 rpm for 10 min. Tissue samples were weighed and flash-frozen for PK and PD mRNA expression analyses, embedded into OCT blocks for PNC determination and processed into FFPE blocks for histopathology assessment. All PK samples were stored at − 80 °C until analysis.\nTo establish a dose–response relationship between intratumor exposure levels of metarrestin and mechanism of action of the drug in vivo, we first confirmed the ability of metarrestin to suppress PNC structures in murine pancreatic KPC tumors. The prevalence of PNC bodies (expressed as the fraction of cells containing one or more PNCs) was 38.2% in untreated murine KPC tumors (Fig. 4a) which was similar to the PNC prevalence in the previously examined NOD/IL2 gamma (null) PANC1 metastasis model (35.1%) and higher than in cancer cell lines derived from primary pancreatic tumors (average ~ 23.5%). […]\nFig. 4 Intratumor metarrestin exposure correlates with PNC prevalence and mRNA expression levels of transcriptional regulators FOXA1 and FOXO6. a Metarrestin disassembles the peri-nucleolar compartment (PNC) in KPC tumors. […] Relative expression levels of FOXA1 and FOXO6 determined by qRT-PCR and normalized to reference genes. […]"}},
  "data": [
    {"smiles": "N=c1c2c(-c3ccccc3)c(-c3ccccc3)n(Cc3ccccc3)c2ncn1[C@H]1CC[C@H](O)CC1", "note": "[metarrestin, Trans-4-(7-benzyl-4-imino-5,6-diphenyl-4,7-dihydro-3H-pyrrolo[2,3-d]pyrimidin-3-yl) cyclohexanol]", "values": [
      {"measurement": "FOXO6 mRNA expression in KPC tumors", "setting": "[1]", "result": "Dose-dependent normalization"},
      {"measurement": "PNC prevalence in KPC tumors", "setting": "[2]", "result": 9.8, "unit": "%"}
    ]}
  ]
}
